Measured values reported in patent US6537986B2, “Oxazolidinone antibacterial agents having a thiocarbonyl funtionality” (Pharmacia & Upjohn Company, priority 1997, dated 2003).
In brackets after ≈: the same amount, converted by molar mass. Read-outs that look alike come from different tables or passages of the source.

Legend:
S. aureus (SAUR 9213) = assay: MIC, standard agar dilution method; assay type: cell-based; settings: Staphylococcus aureus, incubated overnight at 35° C.
Procedure: (§1) MIC Test Method The in vitro MICs of test compounds were determined by a standard agar dilution method. […] Serial 2-fold dilutions of each sample are made using 1.0 ml aliquots of sterile distilled water. To each 1.0 ml aliquot of drug is added 9 ml of molten Mueller Hinton agar medium. The drug-supplemented agar is mixed, poured into 15×100 mm petri dishes, and allowed to solidify and dry prior to inoculation. Vials of each of the test organisms are maintained frozen in the vapor phase of a liquid nitrogen freezer. Test cultures are grown overnight at 35° C. on the medium appropriate for the organism. Colonies are harvested with a sterile swab, and cell suspensions are prepared in Trypticase Soy broth (TSB) to equal the turbidity of a 0.5 McFarland standard. A 1:20 dilution of each suspension is made in TSB. […] The plates are incubated overnight at 35° C. Following incubation the Minimum Inhibitory Concentration (MIC μg/ml), the lowest concentration of drug that inhibits visible growth of the organism, is read and recorded.

S. pyogenes (SPYO 152) = assay: MIC, standard agar dilution method; assay type: cell-based; settings: Streptococcus pyogenes, incubated overnight at 35° C.
Procedure: as §1

[1] = system: S. pneumoniae (SPNE 9912); assay: MIC, standard agar dilution method; assay type: cell-based; settings: Streptococcus pneumoniae, incubated overnight at 35° C.
Procedure: as §1

[2] = system: Enterococcus faecalis (EFAE 9217); assay: MIC, standard agar dilution method; assay type: cell-based; settings: incubated overnight at 35° C.
Procedure: as §1

[3] = system: Haemophilus influenzae (HINF 30063); assay: MIC, standard agar dilution method; assay type: cell-based; settings: Haemophilus influenzae, Table II, Mueller Hinton agar, incubated overnight at 35° C.
Procedure: as §1

E. Faecium (EFAE 12712) = assay: MIC, standard agar dilution method; assay type: cell-based; settings: Enterococcus faecium; Table II; key: E. Faecium; agar dilution, Mueller Hinton agar, incubated overnight at 35° C.; read-out: EFAE 12712 MIC
Procedure: as §1

[4] = system: S. epidermidis (SEPI 30593); assay: MIC, standard agar dilution method; assay type: cell-based; settings: Staphylococcus epidermidis, Table II, Mueller Hinton agar, incubated overnight at 35° C.
Procedure: as §1

[5] = system: Moraxella catarrhalis (MCAT 30610); assay: MIC, standard agar dilution method; assay type: cell-based; settings: Moraxella catarrhalis, Table II, Mueller Hinton agar, incubated overnight at 35° C.
Procedure: as §1

[6] = system: S. epidermidis (SEPI 12084); assay: MIC, standard agar dilution method; assay type: cell-based; settings: Staphylococcus epidermidis, Table 1, Mueller Hinton agar, incubated overnight at 35° C., read-out: Oxazolidinone MIC Values (Gram+) SEPI 12084
Procedure: MIC Test Method The in vitro MICs of test compounds were determined by a standard agar dilution method. A stock drug solution of each analog is prepared in the preferred solvent, usually DMSO:H2O (1:3). Serial 2-fold dilutions of each sample are made using 1.0 ml aliquots of sterile distilled water. To each 1.0 ml aliquot of drug is added 9 ml of molten Mueller Hinton agar medium. The drug-supplemented agar is mixed, poured into 15×100 mm petri dishes, and allowed to solidify and dry prior to inoculation. Vials of each of the test organisms are maintained frozen in the vapor phase of a liquid nitrogen freezer. Test cultures are grown overnight at 35° C. on the medium appropriate for the organism. Colonies are harvested with a sterile swab, and cell suspensions are prepared in Trypticase Soy broth (TSB) to equal the turbidity of a 0.5 McFarland standard. A 1:20 dilution of each suspension is made in TSB. […] The plates are incubated overnight at 35° C. Following incubation the Minimum Inhibitory Concentration (MIC μg/ml), the lowest concentration of drug that inhibits visible growth of the organism, is read and recorded.

[7] = Table 1, Mueller Hinton agar, read-out: Oxazolidinone MIC Values (Gram+) SAUR 9213
[8] = Table II, Mueller Hinton agar, read-out: SAUR 9213 MIC
[9] = Table 1, Mueller Hinton agar, read-out: Oxazolidinone MIC Values (Gram+) SPYO 152
[10] = Table II, Mueller Hinton agar, read-out: SPYO 152 MIC
[11] = Table 1, Mueller Hinton agar, read-out: Oxazolidinone MIC Values (Gram+) SPNE 9912
[12] = Table II, Mueller Hinton agar, read-out: SPNE 9912 MIC
[13] = Enterococcus faecalis, Table 1, Mueller Hinton agar, read-out: Oxazolidinone MIC Values (Gram+) EFAE 9217
[14] = Table II, key: Enterococcus faecalis, Mueller Hinton agar, read-out: EFAE 9217 MIC

Structure (SMILES)	MIC (S. aureus (SAUR 9213); [7])	MIC (S. aureus (SAUR 9213); [8])	MIC (S. pyogenes (SPYO 152); [9])	MIC (S. pyogenes (SPYO 152); [10])	MIC [1, 11]	MIC [1, 12]	MIC [2, 13]	MIC [2, 14]	MIC [3]	MIC (E. Faecium (EFAE 12712))	MIC [4]	MIC [5]	melting point	MIC [6]
CC(=S)NC[C@H]1CN(c2ccc(N3CCOCC3)c(F)c2)C(=O)O1 [Example 1, (S)-N-[[3-[3-Fluoro-4-(4-morpholinyl)phenyl]-2-oxo-5-oxazolidinyl]methyl]thioacetamide]	1 µg/mL (≈ 2.83 µM)	1 µg/mL (≈ 2.83 µM)	0.13 µg/mL (≈ 0.368 µM)	< 0.125 µg/mL	0.13 µg/mL (≈ 0.368 µM)	< 0.125 µg/mL	0.5 µg/mL (≈ 1.41 µM)	0.5 µg/mL (≈ 1.41 µM)	8 µg/mL (≈ 22.6 µM)	0.5 µg/mL (≈ 1.41 µM)	0.25 µg/mL (≈ 0.707 µM)	1 µg/mL (≈ 2.83 µM)	157.5 to 158.5 °C	0.25 µg/mL (≈ 0.707 µM)
CC(=S)NC[C@H]1CN(c2ccc(N3CCN(c4nnc(C)s4)CC3)c(F)c2)C(=O)O1 [Example 2, (S)-N-[[3-[3-Fluoro-4-[4-(5-methyl-1,3,4-thiadiazol-2-yl)-1-piperazinyl]phenyl]-2-oxo-5-oxazolidinyl]methyl]thioacetamide]	8 µg/mL (≈ 17.8 µM)	8 µg/mL (≈ 17.8 µM)	4 µg/mL (≈ 8.88 µM)	4 µg/mL (≈ 8.88 µM)	2 µg/mL (≈ 4.44 µM)	2 µg/mL (≈ 4.44 µM)	4 µg/mL (≈ 8.88 µM)	4 µg/mL (≈ 8.88 µM)	> 16 µg/mL	8 µg/mL (≈ 17.8 µM)	4 µg/mL (≈ 8.88 µM)	> 16 µg/mL	222 to 223 °C	2 µg/mL (≈ 4.44 µM)
CC(=S)NC[C@H]1CN(c2ccc(N3CCC4(CC3)NC(=O)NC4=O)c(F)c2)C(=O)O1 [Example 3, (S)-N-[[3-[3-Fluoro-4-[2′,5′-dioxospiro[piperidine-4,4′-imidazolidine]-1-yl]phenyl]-2-oxo-5-oxazolidinyl]methyl]thioacetamide]	4 µg/mL (≈ 9.19 µM)	4 µg/mL (≈ 9.19 µM)	0.5 µg/mL (≈ 1.15 µM)	0.5 µg/mL (≈ 1.15 µM)	0.25 µg/mL (≈ 0.574 µM)	0.25 µg/mL (≈ 0.574 µM)	2 µg/mL (≈ 4.59 µM)	2 µg/mL (≈ 4.59 µM)	16 µg/mL (≈ 36.7 µM)	1 µg/mL (≈ 2.3 µM)	1 µg/mL (≈ 2.3 µM)	4 µg/mL (≈ 9.19 µM)	–	1 µg/mL (≈ 2.3 µM)
NC(=S)NC[C@H]1CN(c2ccc(N3CCOCC3)c(F)c2)C(=O)O1 [Example 5, (S)-N-[[3-[3-Fluoro-4-(4-morpholinyl)phenyl]-2-oxo-5-oxazolidinyl]methyl]thiourea]	1 µg/mL (≈ 2.82 µM)	1 µg/mL (≈ 2.82 µM)	0.25 µg/mL (≈ 0.705 µM)	0.25 µg/mL (≈ 0.705 µM)	< 0.125 µg/mL	< 0.125 µg/mL	0.5 µg/mL (≈ 1.41 µM)	0.5 µg/mL (≈ 1.41 µM)	4 µg/mL (≈ 11.3 µM)	0.5 µg/mL (≈ 1.41 µM)	0.5 µg/mL (≈ 1.41 µM)	2 µg/mL (≈ 5.64 µM)	199 to 199.5 °C	0.25 µg/mL (≈ 0.705 µM)
CNC(=S)NC[C@H]1CN(c2ccc(N3CCOCC3)c(F)c2)C(=O)O1 [Example 6, (S)-N-[[3-[3-Fluoro-4-(4-morpholinyl)phenyl]-2-oxo-5-oxazolidinyl]methyl]-N′-methylthiourea]	2 µg/mL (≈ 5.43 µM)	2 µg/mL (≈ 5.43 µM)	1 µg/mL (≈ 2.71 µM)	1 µg/mL (≈ 2.71 µM)	0.5 µg/mL (≈ 1.36 µM)	0.5 µg/mL (≈ 1.36 µM)	2 µg/mL (≈ 5.43 µM)	2 µg/mL (≈ 5.43 µM)	16 µg/mL (≈ 43.4 µM)	2 µg/mL (≈ 5.43 µM)	2 µg/mL (≈ 5.43 µM)	8 µg/mL (≈ 21.7 µM)	158 to 160 °C	1 µg/mL (≈ 2.71 µM)
CC(=O)NC[C@H]1CN(c2ccc(N3CCC4(CC3)NC(=O)NC4=O)c(F)c2)C(=O)O1 [reference compound]	16 µg/mL (≈ 38.1 µM)	–	1 µg/mL (≈ 2.38 µM)	–	0.5 µg/mL (≈ 1.19 µM)	–	8 µg/mL (≈ 19.1 µM)	–	–	–	–	–	–	4 µg/mL (≈ 9.54 µM)
CC(=O)NC[C@H]1CN(c2ccc(N3CCOCC3)c(F)c2)C(=O)O1 [reference compound]	2 µg/mL (≈ 5.93 µM)	–	1 µg/mL (≈ 2.96 µM)	–	0.5 µg/mL (≈ 1.48 µM)	–	2 µg/mL (≈ 5.93 µM)	–	–	–	–	–	–	1 µg/mL (≈ 2.96 µM)
CC(=O)NC[C@H]1CN(c2ccc(N3CCN(c4nnc(C)s4)CC3)c(F)c2)C(=O)O1 [reference compound]	0.5 µg/mL (≈ 1.15 µM)	–	0.25 µg/mL (≈ 0.575 µM)	–	0.13 µg/mL (≈ 0.299 µM)	–	1 µg/mL (≈ 2.3 µM)	–	–	–	–	–	–	0.25 µg/mL (≈ 0.575 µM)
